Reference: patent US8410106B2, “Hydrazine-substituted anthranilic acid derivatives” (Bayer Cropscience AG, priority 2010, dated 2013)
Where two headings read alike, the source gives them in different places.

Tests used:
[1] = logP determination by HPLC on reversed-phase columns (C 18), EEC Directive 79/831 Annex V.A8; format: physicochemical
[2] = system: green peach aphid (Myzus persicae); assay: Myzus test (MYZUPE spray treatment); format: in vivo; details: foliar, 144 h, read-out: activity (aphids killed)
Description: After 6 days the activity is determined, in %.

[3] = system: caterpillars of the army worm (Spodoptera frugiperda); assay: Spodoptera frugiperda test (SPODFR spray treatment); format: in vivo; details: foliar, 168 h, read-out: activity (caterpillars killed)
[4] = system: larvae of the mustard beetle (Phaedon cochleariae); assay: Phaedon test (PHAECO spray treatment); details: in Brassica rapa, foliar, 168 h, read-out: activity (beetle larvae killed)
[5] = HPLC, reversed-phase C 18, table value without method mark, read-out: logP
[6] = application rate 100 g/ha, after 6 days, Chinese cabbage leaf discs, spray
[7] = application rate 100 g/ha, after 7 days, maize leaf discs, spray
[8] = HPLC, reversed-phase C 18, value in text of the Preparation Examples, read-out: logP

## COC(=O)N(C)NC(=O)c1cc(C#N)cc(C)c1NC(=O)c1cc(Cn2nnnc2C(F)(F)F)nn1-c1ccccc1Cl [Example 55]
[1]; [5]
  chromatographic logP: 2.69

## COC(=O)N(C)NC(=O)c1cc(C(F)(F)F)cc(C)c1NC(=O)c1cc(Cn2nnc(C(F)(F)C(F)(F)F)n2)nn1-c1ncccc1Cl [Example 61]
[1]; [5]
  chromatographic logP: 3.55
[2]; [6]
  pest or weed control at 100 g/ha: 90%
[3]; [7]
  pest or weed control at 100 g/ha: 100%
[4]
  pest or weed control at 100 g/ha: 100%

## COC(=O)N(C)NC(=O)c1cc(Cl)cc(C)c1NC(=O)c1cc(Cn2cc(C(C)(C)C)nn2)nn1-c1ncccc1Cl [Example 24]
[1]
  chromatographic logP: 2.53

## COC(=O)N(C)NC(=O)c1cc(Cl)cc(C)c1NC(=O)c1cc(Cn2nnc(C(F)(F)C(F)(F)C(F)(F)F)n2)nn1-c1ncccc1Cl [Example 1, methyl N′-(5-chloro-2-{[2-(3-chloropyridin-2-yl)-5-(5-heptalluoropropyltetrazol-2-ylmethyl)-2H-pyrazole-3-carbonyl]amino}-3-methylbenzoyl)-N-methylhydrazinecarboxylate]
[1]; [8]
  chromatographic logP: 3.66
[2]; in Brassica rapa
  pest or weed control at 100 g/ha: 100%
[3]; in Zea mays
  pest or weed control at 100 g/ha: 100%
[4]
  pest or weed control at 100 g/ha: 100%

## COC(=O)N(C)NC(=O)c1cc(I)cc(C)c1NC(=O)c1cc(Cn2cc(C(F)(F)F)nn2)nn1-c1ncccc1Cl [Example 35]
[1]
  chromatographic logP: 3.14
[2]; in Brassica rapa
  pest or weed control at 100 g/ha: 100%
[3]; in Zea mays
  pest or weed control at 100 g/ha: 100%
[4]
  pest or weed control at 100 g/ha: 100%

## COC(=O)N(C)NC(=O)c1cc(I)cc(C)c1NC(=O)c1cc(Cn2cnc(C(F)(F)F)n2)nn1-c1ncccc1Cl [Example 69]
[1]
  chromatographic logP: 2.71
[2]; in Brassica rapa
  pest or weed control at 100 g/ha: 100%
[3]; in Zea mays
  pest or weed control at 100 g/ha: 100%
[4]
  pest or weed control at 100 g/ha: 100%

## COC(=O)N(C)NC(=O)c1cc(C#N)cc(C)c1NC(=O)c1cc(Cn2cnc(C(F)(F)F)c2C(F)(F)F)nn1-c1ncccc1Cl [Example 76]
[1]; [5]
  chromatographic logP: 2.77

## COC(=O)N(C)NC(=O)c1cc(C#N)cc(C)c1NC(=O)c1cc(Cn2nnc(C(F)(F)C(F)(F)F)n2)nn1-c1ncccc1Cl [Example 73]
[1]; [5]
  chromatographic logP: 2.97
[2]; [6]
  pest or weed control at 100 g/ha: 100%
[3]; [7]
  pest or weed control at 100 g/ha: 100%
[4]
  pest or weed control at 100 g/ha: 100%

## COC(=O)N(C)NC(=O)c1cc(Cl)cc(C)c1NC(=O)c1cc(Cn2nnc(C(F)(F)F)n2)nn1-c1ccccc1Cl [Example 85]
[1]; [5]
  chromatographic logP: 3.34
[2]; [6]
  pest or weed control at 100 g/ha: 100%
[3]; [7]
  pest or weed control at 100 g/ha: 100%
[4]
  pest or weed control at 100 g/ha: 100%

## COC(=O)NNC(=O)c1cc(Cl)cc(C)c1NC(=O)c1cc(Cn2nnc(C(F)(F)C(F)(F)C(F)(F)F)n2)nn1-c1ncccc1Cl [Example 54]
[1]; [5]
  chromatographic logP: 3.41
[2]; in Brassica rapa
  pest or weed control at 100 g/ha: 90%
[3]; in Zea mays
  pest or weed control at 100 g/ha: 100%
[4]
  pest or weed control at 100 g/ha: 100%

## COC(=O)N(C)NC(=O)c1cc(Cl)cc(C)c1NC(=O)c1cc(Cn2nc(C(F)(F)C(F)(F)F)cc2C(F)(F)C(F)(F)F)nn1-c1ncccc1Cl [Example 13]
[1]; [5]
  chromatographic logP: 4.32
[3]; [7]
  pest or weed control at 100 g/ha: 100%
[4]
  pest or weed control at 100 g/ha: 100%

## COC(=O)N(C)NC(=O)c1cc(Cl)cc(C)c1NC(=O)c1cc(Cn2nnc(C(F)(F)C(F)(F)F)n2)nn1-c1ncccc1Cl [Example 52]
[1]
  chromatographic logP: 3.32
[2]; in Brassica rapa
  pest or weed control at 100 g/ha: 100%
[3]; in Zea mays
  pest or weed control at 100 g/ha: 100%
[4]
  pest or weed control at 100 g/ha: 100%

## COC(=O)N(C)NC(=O)c1cc(Cl)cc(C)c1NC(=O)c1cc(Cn2nc(C)c(Br)c2C)nn1-c1ncccc1Cl [Example 65]
[1]
  chromatographic logP: 2.97
[2]; in Brassica rapa
  pest or weed control at 100 g/ha: 80%
[3]; in Zea mays
  pest or weed control at 100 g/ha: 100%

## COC(=O)N(C)NC(=O)c1cc(Cl)cc(C)c1NC(=O)c1cc(Cn2cnc(SC)n2)nn1-c1ncccc1Cl [Example 64]
[1]
  chromatographic logP: 2.09

## COC(=O)N(C)NC(=O)c1cc(I)cc(C)c1NC(=O)c1cc(Cn2cnc(C(F)(F)F)c2)nn1-c1ncccc1Cl [Example 77]
[1]
  chromatographic logP: 2.56
[2]; in Brassica rapa
  pest or weed control at 100 g/ha: 80%
[3]; in Zea mays
  pest or weed control at 100 g/ha: 83%

## COC(=O)N(C)NC(=O)c1cc(C#N)cc(C)c1NC(=O)c1cc(Cn2nnc(C(F)(F)F)n2)nn1-c1ncccc1Cl [Example 6]
[1]
  chromatographic logP: 2.63
[2]; in Brassica rapa
  pest or weed control at 100 g/ha: 100%
[3]; in Zea mays
  pest or weed control at 100 g/ha: 100%
[4]
  pest or weed control at 100 g/ha: 100%

## COC(=O)N(C)NC(=O)c1cc(C#N)cc(C)c1NC(=O)c1cc(Cn2nnc(C(F)(F)F)n2)nn1-c1ccccc1Cl [Example 56]
[1]; [5]
  chromatographic logP: 2.97

## COC(=O)N(C)NC(=O)c1cc(I)cc(C)c1NC(=O)c1cc(Cn2ncc(C(F)(F)F)n2)nn1-c1ncccc1Cl [Example 32]
[1]
  chromatographic logP: 2.81
[2]; in Brassica rapa
  pest or weed control at 100 g/ha: 90%
[3]; in Zea mays
  pest or weed control at 100 g/ha: 100%
[4]
  pest or weed control at 100 g/ha: 100%

## COC(=O)N(C)NC(=O)c1cc(Cl)cc(Cl)c1NC(=O)c1cc(Cn2nnc(C(F)(F)F)n2)nn1-c1ncccc1Cl [Example 43]
[1]
  chromatographic logP: 2.92

## COC(=O)N(C)NC(=O)c1cc(C#N)cc(C)c1NC(=O)c1cc(Cn2nnc(C(F)F)n2)nn1-c1ncccc1Cl [Example 45]
[1]
  chromatographic logP: 2.15
[2]; in Brassica rapa
  pest or weed control at 100 g/ha: 100%
[3]; in Zea mays
  pest or weed control at 100 g/ha: 100%
[4]
  pest or weed control at 100 g/ha: 100%

## COC(=O)N(C)NC(=O)c1cc(Cl)cc(Cl)c1NC(=O)c1cc(Cn2nc(C(F)(F)C(F)(F)F)cc2C(F)(F)C(F)(F)F)nn1-c1ncccc1Cl [Example 14]
[1]; [5]
  chromatographic logP: 4.3
[3]; [7]
  pest or weed control at 100 g/ha: 100%
[4]
  pest or weed control at 100 g/ha: 100%

## COC(=O)N(C)NC(=O)c1cc(Cl)cc(Cl)c1NC(=O)c1cc(Cn2nc(C(F)(F)F)nc2C)nn1-c1ncccc1Cl [Example 21]
[1]
  chromatographic logP: 2.51
[2]; in Brassica rapa
  pest or weed control at 100 g/ha: 90%
[3]; in Zea mays
  pest or weed control at 100 g/ha: 100%

## COC(=O)N(C)N(C)C(=O)c1cc(Cl)cc(C)c1NC(=O)c1cc(Cn2cc(-c3ccc(Cl)cc3)nn2)nn1-c1ncccc1Cl [Example 41]
[1]; [5]
  chromatographic logP: 3.49
[2]; [6]
  pest or weed control at 100 g/ha: 100%
[3]; [7]
  pest or weed control at 100 g/ha: 100%
[4]
  pest or weed control at 100 g/ha: 100%

## COC(=O)N(C)NC(=O)c1cc(Cl)cc(C)c1NC(=O)c1cc(Cn2cnc(C(F)(F)F)c2C(F)(F)F)nn1-c1ncccc1Cl [Example 48]
[1]; [5]
  chromatographic logP: 3.08
[2]; [6]
  pest or weed control at 100 g/ha: 100%
[3]; [7]
  pest or weed control at 100 g/ha: 100%
[4]
  pest or weed control at 100 g/ha: 100%

## COC(=O)N(C)NC(=O)c1cc(Cl)cc(Cl)c1NC(=O)c1cc(Cn2nc(C(F)(F)F)cc2C(F)(F)F)nn1-c1ncc(C(F)(F)F)cc1Cl [Example 18]
[1]; [5]
  chromatographic logP: 4.32

## COC(=O)NNC(=O)c1cc(I)cc(C)c1NC(=O)c1cc(Cn2nnc(C(F)(F)C(F)(F)C(F)(F)F)n2)nn1-c1ncccc1Cl [Example 2, Methyl N′-(2-{[2-(3-chloropyridin-2-yl)-5-(5-heptalluoropropyltetrazol-2-ylmethyl)-2H-pyrazole-3-carbonyl]amino}-5-iodo-3-methylbenzoyl)hydrazincarboxylate]
[1]; [8]
  chromatographic logP: 3.58
[3]; in Zea mays
  pest or weed control at 100 g/ha: 100%
[4]
  pest or weed control at 100 g/ha: 100%

## COC(=O)N(C)N(C)C(=O)c1cc(Cl)cc(C)c1NC(=O)c1cc(Cn2cc(C(C)(C)C)nn2)nn1-c1ncccc1Cl [Example 40]
[1]
  chromatographic logP: 2.98

## COC(=O)N(C)NC(=O)c1cc(Cl)cc(C)c1NC(=O)c1cc(CNS(=O)(=O)c2ccccc2C(F)(F)F)nn1-c1ncccc1Cl [Example 70]
[1]; [5]
  chromatographic logP: 2.81

## COC(=O)N(C)NC(=O)c1cc(Cl)cc(Cl)c1NC(=O)c1cc(Cn2nc(C(F)(F)F)cc2-c2ccccc2)nn1-c1ncccc1Cl [Example 15]
[1]; [5]
  chromatographic logP: 3.82
[3]; [7]
  pest or weed control at 100 g/ha: 100%

## COC(=O)NNC(=O)c1cc(C#N)cc(C)c1NC(=O)c1cc(Cn2nnc(C(F)(F)F)n2)nn1-c1ccccc1Cl [Example 84]
[2]; [6]
  pest or weed control at 100 g/ha: 100%
[3]; [7]
  pest or weed control at 100 g/ha: 100%
[4]
  pest or weed control at 100 g/ha: 100%

## COC(=O)N(C)N(C)C(=O)c1cc(Cl)cc(C)c1NC(=O)c1cc(Cn2cc(C3CC3)nn2)nn1-c1ncccc1Cl [Example 39]
[1]
  chromatographic logP: 2.71
[2]; in Brassica rapa
  pest or weed control at 100 g/ha: 80%

## COC(=O)NNC(=O)c1cc(I)cc(C)c1NC(=O)c1cc(Cn2cnc(C(F)(F)F)c2)nn1-c1ncccc1Cl [Example 80]
[1]
  chromatographic logP: 2.38

## COC(=O)N(C)NC(=O)c1cc(F)cc(C)c1NC(=O)c1cc(Cn2nnc(C(F)(F)C(F)(F)F)n2)nn1-c1ncccc1Cl [Example 44]
[1]
  chromatographic logP: 3.05

## COC(=O)N(C)NC(=O)c1cc(C#N)cc(C)c1NC(=O)c1cc(Cn2cnc(C(F)(F)F)c2)nn1-c1ncccc1Cl [Example 78]
[1]
  chromatographic logP: 2.1
[2]; in Brassica rapa
  pest or weed control at 100 g/ha: 90%

## COC(=O)N(C)NC(=O)c1cc(C#N)cc(C)c1NC(=O)c1cc(COc2ccc(C(F)(F)F)nn2)nn1-c1ncccc1Cl [Example 22]
[1]
  chromatographic logP: 2.53
[2]; in Brassica rapa
  pest or weed control at 100 g/ha: 100%
[4]
  pest or weed control at 100 g/ha: 100%

## COC(=O)N(C)NC(=O)c1cc(Cl)cc(C)c1NC(=O)c1cc(CNS(=O)(=O)c2ccccc2)nn1-c1ncccc1Cl [Example 71]
[1]
  chromatographic logP: 2.42

## COC(=O)N(C)NC(=O)c1cc(Cl)cc(Cl)c1NC(=O)c1cc(Cn2nc(C(F)(F)F)c([N+](=O)[O-])c2C)nn1-c1ncccc1Cl [Example 19]
[1]; [5]
  chromatographic logP: 3.11
[3]; [7]
  pest or weed control at 100 g/ha: 100%
[4]
  pest or weed control at 100 g/ha: 100%

## COC(=O)N(C)NC(=O)c1cc(Cl)cc(C)c1NC(=O)c1cc(Cn2nc(C(F)(F)F)cc2C(F)(F)F)nn1-c1ncc(C(F)(F)F)cc1Cl [Example 10]
[1]; [5]
  chromatographic logP: 4.35

## COC(=O)NNC(=O)c1cc(C#N)cc(C)c1NC(=O)c1cc(Cn2nnc(C(F)(F)F)n2)nn1-c1ccccc1Cl [Example 58]
[1]; [5]
  chromatographic logP: 2.79

## COC(=O)NNC(=O)c1cc(Cl)cc(C)c1NC(=O)c1cc(Cn2cc(C(C)(C)C)nn2)nn1-c1ncccc1Cl [Example 62]
[1]
  chromatographic logP: 2.38
[3]; in Zea mays
  pest or weed control at 100 g/ha: 100%
